In ChEMBL document CHEMBL1177820, “Diazinones as P2 replacements for pyrazole-based cathepsin S inhibitors” (Bioorg Med Chem Lett, 2010):

Experiments:
[1] = Apparent permeability from apical to basolateral side in […] TC7 cells; format: ADME, cell-based; conditions: Caco-2
[2] = Apparent permeability from basolateral to apical side in […] TC7 cells; format: ADME, cell-based; conditions: Caco-2

Papp A→B [1] [×10⁻⁶ cm/s] | Papp B→A [2] [×10⁻⁶ cm/s] | SMILES
1.3 | 1.5 | Cn1c(=O)n(C2CCN(CCCn3nccc(-c4ccc(Cl)c(CNC(=O)c5ccc(F)cc5)c4)c3=O)CC2)c2cc(Cl)ccc21
2.5 | 2.9 | Cn1c(=O)n(C2CCN(CCCn3cncc(-c4ccc(Cl)c(CNC(=O)c5ccc(F)cc5)c4)c3=O)CC2)c2cc(Cl)ccc21
0.6 | 3.7 | Cn1c(=O)n(C2CCN(CCCn3ccnc(-c4ccc(Cl)c(CNC(=O)c5ccc(F)cc5)c4)c3=O)CC2)c2cc(Cl)ccc21
